Consider 2 compounds from patent publication US20230381142A1, “ANTILEISHMANIAL COMPOUNDS, COMPOSITIONS AND USE THEREOF” (TRUSTEES OF BOSTON UNIVERSITY, priority 2022, published 2023).

Series [1] relates to L. donovani intracellular amastigotes infecting THP-1 cells. Nature of the series: High content intracellular amastigote assay in THP-1 cells (Assay Conditions B; CDIPD screen). Format: cell-based, Leishmania donovani. The conditions noted are these: Leishmania donovani; THP-1 host cells. The procedure:
(§1) Assay Conditions B: THP-1 cells (human acute monocytic leukemia cell line—ATCC TIB202) were grown in RPMI supplemented with 10% Fetal Bovine Serum (FBS) and 50 μM 2-mercaptoethanol at 37° C. in 5% CO2. THP-1 were seeded in microwell plates at 5×10^5 cells/mL density and treated with 0.1 μM phorbol myristate acetate (PMA, Sigma) at 37° C. for 48 h for differentiation into adherent, non-dividing macrophages. After activation by PMA, cells were washed and incubated with complete RPMI medium containing stationary phase Leishmania promastigotes (L. major: strain LV39; L. donovani, strain 1S/Cl2D) at a 1:15 parasite-cell ratio. Compounds were added and incubated at 37° C. for 72 h. Cells were then washed with phosphate-buffered saline (PBS), fixed for 30 minutes with 4% formaldehyde, rinsed again with PBS, stained for 2 h with 4′,6′-diamidino-2-phenylindole (DAPI 300 nM) and finally washed with PBS. In a collaborative effort to identify new antileishmanial chemotypes with minimal host cell cytotoxicity, compounds from the Boston University Center for Molecular Discovery (BUCMD) screening collection were assessed in a phenotypic, high content primary screen at the University of California's Center for Discovery and Innovation in Parasitic Diseases (CDIPD) for the ability to inhibit growth of L. donovani intracellular amastigotes infecting THP-1 cells. […] Dose-response testing in L. donovani (both intracellular amastigotes and promastigotes) confirmed concentration-dependent growth inhibition of both morphologies of the parasite at low micromolar EC50 values for both compounds (Table 1).

Series [2] concerns L. major (strain LV39) intracellular amastigotes infecting THP-1 cells. Kind of series: High content intracellular amastigote assay in THP-1 cells (Assay Conditions B). Type of series: cell-based, Leishmania major. The conditions noted are these: Leishmania major; THP-1 host cells. The procedure: as §1
In series [3] the test system is L. donovani promastigotes (strain 1S/Cl2D). Nature of the series: Promastigote assay, CellTiter-Glo (Assay Conditions F). The conditions noted are these: Leishmania donovani; read-out: Extracellular promastigote EC50. Format: cell-based. The procedure:
(§2) Assay Conditions F: Leishmania promastigotes (L. major: strain LV39; L. donovani, strain 1S/Cl2D) were maintained as previously described in PloS Negl Trop Dis (2015) 9(3):e0003588 and Pathogens (2021) 10(5):593) at 28° C. in M199 media supplemented with glutamine, adenosine, folic acid, hemin, HEPES, 10% Fetal Bovine Serum (Sigma-Aldrich, cat. no. F2442) and 1% Penicillin-Streptomycin (Gibco, cat. no. 15140122). For the promastigote assay, we followed the method previously described in PloS Negl Trop Dis (2011) 5(7):e1253. Briefly, promastigotes were incubated with the compounds for 72 h at 27° C., then lysed by adding 50 μL of CellTiter-Glo (Promega) and placed on an orbital shaker for 5 min at room temperature. After lysis, the resulting ATP-bioluminescence was measured using the Analyst HT plate reader (Molecular Devices).
In general terms: ATP-based viability assays read luminescence as a measure of living cells.

In series [4] the test system is L. major promastigotes (strain LV39). The series is described as above. The conditions noted are these: Leishmania major; read-out: Extracellular promastigote EC50. Format: cell-based. The procedure:
as §2

In series [5] the test system is L. donovani intracellular amastigotes infecting THP-1 macrophages. Nature of the series: GSK intramacrophage L. donovani assay (LD AMMAC, inMac; Assay Conditions C). Type of series: cell-based. The conditions noted are these: Leishmania donovani. Put shortly: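 EC50 values come from counting amastigotes per infected THP-1 macrophage (AMMAC). Parallel read-outs give percentage of infected cells per well (INFCELL) and a macrophage-number toxicity EC50 (MAC).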

Series [6] can be described thus: Kinetic aqueous solubility by CLND. Format: physicochemical. The conditions noted are these: kinetic from dmso stock, high-throughput CLND. The procedure: Solubility of compounds using ChemiLuminescent Nitrogen Detection (CLND) was measured as described. Solubility of compounds using Charged Aerosol Detection (CAD) was measured as described. Solubility of solid compounds in Fasted Simulated Intestinal Fluid (FaSSIF) was measured as described.

A short description of series [7]: Artificial membrane permeability (AMP). Type of series: in vitro ADME. The following applies: PAMPA, pH 7.4. Put shortly: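 Passive permeation through 1.8% phosphatidylcholine in 1% decane membrane, 50 mM phosphate buffer pH 7.4 on donor and receiver sides. After 45 min pre-shaking, compounds incubated 3 h at room temperature with shaking, in duplicate; donor and receiver solutions quantified by LC/MS.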
On the technique in general: The PAMPA barrier holds no transporters, so it reflects passive diffusion.

Series [8] deals with human serum albumin (Homo sapiens, UniProt P02768). Nature of the series: Human serum albumin (HSA) binding, chromatographic. Type of series: in vitro ADME. The method, then: The percentage of compound bound to human serum albumin was measured using a chromatographic method as described. Briefly, each compound was assayed on an immobilized HSA column and gradient retention times measured, with chromatographic peak detection by UV. Each retention time was then converted to a % HSA bound value using a calibration set of compounds with a known % HSA binding.

A short description of series [9]: Property forecast index (PFI = ChromLogD7.4 + aromatic rings). Type of series: physicochemical.
The mark [10] stands for this setting: growth inhibition of L. donovani intracellular amastigotes infecting THP-1 macrophages, read-out: LD AMMAC EC50.

The structures appear in SMILES notation. ≈ marks a conversion by molar mass, not a printed value. Where two headings read alike, the source gives them in different places.

Sequence of human serum albumin (P02768 25-609): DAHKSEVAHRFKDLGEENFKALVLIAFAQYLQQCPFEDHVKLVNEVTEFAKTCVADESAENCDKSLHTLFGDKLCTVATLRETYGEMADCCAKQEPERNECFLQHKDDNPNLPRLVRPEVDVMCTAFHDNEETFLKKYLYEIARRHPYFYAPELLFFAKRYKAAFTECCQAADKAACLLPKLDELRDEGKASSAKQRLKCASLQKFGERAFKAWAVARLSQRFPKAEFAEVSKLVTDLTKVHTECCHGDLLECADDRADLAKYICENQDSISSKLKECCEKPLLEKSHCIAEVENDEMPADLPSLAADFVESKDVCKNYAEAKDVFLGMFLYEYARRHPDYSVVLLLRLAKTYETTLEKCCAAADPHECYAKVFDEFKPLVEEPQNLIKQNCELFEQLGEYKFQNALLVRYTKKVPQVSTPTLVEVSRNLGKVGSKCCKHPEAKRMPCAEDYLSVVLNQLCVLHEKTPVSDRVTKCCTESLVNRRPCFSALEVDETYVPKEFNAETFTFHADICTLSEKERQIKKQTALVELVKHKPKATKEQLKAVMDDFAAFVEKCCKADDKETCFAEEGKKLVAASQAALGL

For orientation: EC50 means the midpoint of the concentration-response curve. The term IC50 denotes the concentration at which inhibition is half-maximal. One may read the solubility as the concentration that dissolves in the medium under given conditions. Low values mean little dissolved substance, high ones much dissolved substance. Broadly, the Papp is the rate of passage across a membrane or cell layer, normalised by area and donor concentration. Lower therefore signals poor permeation. As for `COc1ccc(N2C(=O)c3[nH]nc(CC(C)C)c3C2c2ccc(F)cc2)cc1` (racemic) [Compound 1, 4-(4-fluorophenyl)-3-isobutyl-5-(4-methoxyphenyl)-4,5-dihydropyrrolo[3,4-c]pyrazol-6(1H)-one], the EC50 is 2.5 µM in [1]; 1.3 µM in [2]; 2 µM in series [3]; 4.4 µM in series [4]; 2.5 µM in series [5] (THP-1, GSK lead selection criteria, read-out: Antiparasitic activity EC50, L. donovani amastigotes); 2.5 µM in series [5] (setting [10]). The compound further had a 50% inhibitory concentration (IC50) in series [5] (THP-1) of 2.5 µM. The solubility in series [6] (aqueous medium) was found to be 107 µM (≈ 40.6 µg/mL). For the same compound, the Papp at 3 h in series [7] is 34.5 ×10⁻⁶ cm/s. In series [8], the “HSA Binding” value was found to be 96.4%. In addition, the PFI in [9] came to 8.4.

With `COc1ccc(N2C(=O)c3[nH]nc(CC(C)C)c3C2c2ccccc2)cc1` (stereo not drawn) [Compound 2], the EC50 in series [1] was 3.7 µM; in series [2], 1.7 µM; in [3], 2.4 µM; in series [4], 4.2 µM; in series [5] (setting [10]) it was 3.2 µM. The compound further returned an IC50 in series [5] (THP-1) of 3.2 µM. This compound also registered a solubility in series [6] (aqueous medium (not further specified)) of 90 µM (≈ 32.5 µg/mL). Also, the apparent permeability (Papp) at 3 h in [7] was 37 ×10⁻⁶ cm/s. Besides, the “HSA Binding” value in series [8] is on record as 95.8%. Besides, the PFI in series [9] turned out to be 8.4.
